# Literature values in patent US20190105343A1, “Treatment of Skin Conditions and Diseases Associated with Microbial Biofilms” (Bioclenz PH LLC, priority 2016, published 2019).
# What was measured:
# Pseudomonas aeruginosa = details: pH 5.0-6.0
# [1] = aqueous solutions at 37° C.
# [2] = test system: aerobic and anaerobic gram-positive bacteria; details: broth and biofilm cultures
smiles,measurement,setting,value
"CCCCCCCCCCCC(=O)OCC(O)CO (stereo not shown) [GML, glycerol monolaurate]",killing,Pseudomonas aeruginosa,killed
same,solubility limit,[1],100 µg/mL
same,susceptibility,Gram-negative anaerobes,susceptible
same,bactericidal activity,[2],bactericidal
